Reference: patent publication US11439148B2, “Pyrimidine derivatives” (SYNGENTA PARTICIPATIONS AG, priority 2017, dated 2022)
Several values for one entry are separate records, joined by “and”; a condition that tells them apart may be missing. Equal values may be shown once.

Columns and labels:
Assay type in all cases: in vivo
[1] = system: four weed species (ABUTH, CHEAL, IPOHE, SETVI); experiment: Adjuvant efficacy with fomesafen, glasshouse spray test, average over all species; conditions: fomesafen sodium salt SL, mean over 100 and 200 g/ha, adjuvant 0.2% v/v (none in No Adjuvant rows), 21 days, average of ABUTH
Procedure: The efficacy of adjuvants 1-12 as adjuvants for the herbicide fomesafen (as the sodium salt) were tested in a glasshouse against four weed species, sown into standard soil in pots and cultivated under controlled conditions in a glasshouse (at 24/18° C. day/night; 16 hours light, 65% humidity). Fomesafen sodium salt was added to the spray tank as a standard SL (soluble concentrate) formulation.
The spray tests were also carried out using fomesafen in conjunction with adjuvants 1-12. Unless otherwise stated, the adjuvants were added to the spray solution at a rate of 0.2% v/v. All spray solutions also contained 12.5% v/v of iso-Propanol to normalise the retention of the sprays on the hydrophobic plant surfaces. The weed species and their BBCH growth stage at spraying were Abutilon theophrasti (ABUTH; growth stage 12-13), Chenopodium album (CHEAL; growth stage 15), Ipomea hederacea (IPOHE; growth stage 12), and Setaria viridis (SETVI; growth stage 14). Each spray test was replicated three times. The test plants were then grown in a glasshouse under controlled conditions (at 24/18° C. day/night; 16 hours light; 65% humidity) and watered twice a day.
The efficacy of the herbicide was assessed visually and expressed as a percentage of the leaf area killed. Samples were assessed at a time period of 21 days following application. The results shown in Table 2 below are mean averages over the two rates of fomesafen, the three replicates […].

[2] = system: Digitaria sanguinalis (DIGSA); experiment: Adjuvant efficacy with mesotrione, glasshouse spray test; conditions: mesotrione SC, mean over 30 and 60 g/ha and 3 replicates; adjuvant 0.2% v/v (none in No Adjuvant rows); % leaf area killed, 21 days after application; Tests 1-4 separate runs
Procedure: (§1) The efficacy of adjuvants 1-12 as an adjuvant for the herbicide mesotrione was tested in a glasshouse against four weed species sown into standard soil in pots and cultivated under controlled conditions in a glasshouse (at 24/18° C. day/night; 16 hours light; 65% humidity). Mesotrione was added to the spray tank as a standard SC (suspension concentrate) formulation.
(§2) The spray tests were also carried out using mesotrione in conjunction with adjuvants 1-12. The adjuvants were added to the spray solution at a rate of 0.2% v/v unless otherwise stated. All spray solutions also contained 10% w/w of iso-Propanol. The weed species and their BBCH growth stage at spraying were Brachiaria platyphylla (BRAPP; growth stage 13-14) or Brachiaria plantaginea (BRAPL; growth stage 13-14), Commelina benghalensis (COMBE; growth stage 13), Digitaria sanguinalis (DIGSA; growth stage 14), and Polygonum convolvulus (POLCO; growth stage 13-14). Each spray test was replicated three times.
(§3) The test plants were then grown in a glasshouse under controlled conditions (at 24/18° C. day/night; 16 hours light; 65% humidity) and watered twice a day. The efficacy of the herbicide was assessed visually and expressed as a percentage of the leaf area killed. Samples were assessed at a time period of 21 days following application. The results shown in Table 3 below are mean averages over the two rates of mesotrione and the three replicates.

[3] = system: Polygonum convolvulus (POLCO); experiment: as above; conditions: mesotrione SC, mean over 30 and 60 g/ha and 3 replicates; adjuvant 0.2% v/v (none in No Adjuvant rows); % leaf area killed, 21 days after application; Tests 1-4 separate runs
Procedure: as §1, §2, §3

[4] = system: Brachiaria platyphylla (BRAPP); experiment: as above; conditions: mesotrione SC, mean over 30 and 60 g/ha and 3 replicates; adjuvant 0.2% v/v (none in No Adjuvant rows); % leaf area killed, 21 days after application; Tests 1-3 separate runs
Procedure: as §1, §2, §3

[5] = system: weed species BRAPP, COMBE, DIGSA, POLCO; experiment: Adjuvant efficacy with mesotrione, glasshouse spray test, average over all species (BRAPP set); conditions: mesotrione SC, mean over 30 and 60 g/ha; adjuvant 0.2% v/v (none in No Adjuvant rows); 21 days; Tests 1-3, species set with BRAPP (COMBE only in Test 2)
Procedure: as §1, §2, §3

[6] = system: Commelina benghalensis (COMBE); experiment: Adjuvant efficacy with mesotrione, glasshouse spray test; conditions: mesotrione SC, mean over 30 and 60 g/ha and 3 replicates; adjuvant 0.2% v/v (none in No Adjuvant rows); % leaf area killed, 21 days after application; Tests 2 and 4
Procedure: as §1, §2, §3

Septoria tritici [7] = experiment: Adjuvant efficacy with isopyrazam on inoculated wheat plants; conditions: isopyrazam SC, mean over 6.5, 16, 40 and 100 mg/l and 4 replicates, sprayed 4 days after inoculation, percentage of leaf area infected 17-18 days after infection, Tests 1-3 separate runs
Procedure: Adjuvants 6, 7, 8 and 10 were tested as adjuvants for agrochemical compositions comprising isopyrazam.
Two week old wheat plants were inoculated with the fungus Septoria tritici. […] All spray solutions also contained 10% v/v of iso-Propanol. The leaves of the plants were assessed visually 17-18 days after infection and the damage was expressed as the percentage of the leaf area infected. Each spray test was replicated four times across the four application rates.
The results shown in Table 6 below are mean averages over the four rates of isopyrazam and the four replicates.

Septoria tritici [8] = experiment: Adjuvant efficacy with epoxiconazole on inoculated wheat plants; conditions: epoxiconazole SC 1.5, 4, 8.5 and 20 mg/l, 4 replicates, adjuvant 0.1% v/v (none in No Adjuvant rows), sprayed 4 days after inoculation, percentage of leaf area infected 17-18 days after infection, Tests 1-3 separate runs
Procedure: Adjuvants 6, 7, 8 and 10 were tested as adjuvants for agrochemical compositions comprising epoxiconazole.
Two week old wheat plants were inoculated with the fungus Septoria tritici. […] All spray solutions also contained 10% v/v of iso-Propanol. The leaves of the plants were assessed visually 17-18 days after infection and the damage was expressed as the percentage of the leaf area infected.

[9] = system: weed species BRAPL, COMBE, DIGSA, POLCO; experiment: Adjuvant efficacy with mesotrione, glasshouse spray test, average over all species (BRAPL set); conditions: mesotrione SC, mean over 30 and 60 g/ha, adjuvant 0.2% v/v (none in No Adjuvant rows), 21 days, Test 4, average of BRAPL
Procedure: as §1, §2
as §3, with “The results shown in Table 3 below are mean averages over the two rates of mesotrione and the three replicates.” left out

[10] = system: Brachiaria plantaginea (BRAPL); experiment: Adjuvant efficacy with mesotrione, glasshouse spray test; conditions: mesotrione SC, mean over 30 and 60 g/ha and 3 replicates; adjuvant 0.2% v/v (none in No Adjuvant rows); % leaf area killed, 21 days after application; Test 4
Procedure: as §1, §2, §3

| Structure (SMILES) | Mean % Herbicidal Activity Average over all Species [1] | Mean % Herbicidal Activity DIGSA [2] | Mean % Herbicidal Activity POLCO [3] | Mean % Herbicidal Activity BRAPP [4] [%] | Mean % Herbicidal Activity Average over all Species [5] [%] | Mean % Herbicidal Activity COMBE [6] | Disease Damage Mean (Septoria tritici [7]) | Disease Damage Mean (Septoria tritici [8]) | Mean % Herbicidal Activity Average over all Species [9] [%] | Mean % Herbicidal Activity BRAPL [10] [%] |
| --- | --- | --- | --- | --- | --- | --- | --- | --- | --- | --- |
| CCCCCCOc1cc(OCCOCCOC)ncn1 [Adjuvant 1] | 77% | 81% | 81% | 53 | 72 | – | – | – | – | – |
| CCCCCCOc1cc(OCCOCCOCCOCCOCCOCCOCCOCCOCCOCCOC)ncn1 [Adjuvant 2] | 68% | 79% | 94% | 52 | 75 | – | – | – | – | – |
| CCCCCCOc1cc(OCCOCCOCCOCCOCCOCCOCCOCCOCCOCCOCCOCCOCCOCCOCCOCCOCCOCCOCCOCCOC)ncn1 [Adjuvant 3] | 56% | 83% | 92% | 38 | 71 | – | – | – | – | – |
| CCCCCCCCCOc1cc(OCCOCCOCCOCCOCCOCCOCCOC)ncn1 [Adjuvant 4] | 61% | 83% | 93% | 43 | 73 | – | – | – | – | – |
| CCCCCCCCCOc1cc(OCCOCCOCCOCCOCCOCCOCCOCCOCCOCCOC)ncn1 [Adjuvant 5] | 57% | 72% | 94% | 48 | 71 | – | – | – | – | – |
| CCCCCCCCCCCCOc1cc(OCCOCCOCCOCCOCCOCCOCCOC)ncn1 [Adjuvant 6] | 50% | 83% | 84% | 53 | 76 | 83% | 7% and 9% and 12% | 42% and 10% and 21% | – | – |
| CCCCCCCCCCCCOc1cc(OCCOCCOCCOCCOCCOCCOCCOCCOCCOCCOC)ncn1 [Adjuvant 7] | 71% | 80% | 70% | 68 | 73 | – | 12% | 12% | – | – |
| CCCCCCCCCCCCCCCCOc1cc(OCCOCCOCCOCCOCCOCCOCCOCCOCCOCCOC)ncn1 [Adjuvant 8] | 60% and 75% and 43% | 84% and 81% and 83% | 82% and 92% and 93% | – | – | 85% and 79% | 20% | 36% | 72 | 33 |
| CCCCCCCCC=CCCCCCCCCOc1cc(OCCOCCOC)ncn1 [Adjuvant 9] | 67% | 82% | 92% | 69 | 81 | – | – | – | – | – |
| CCCCCCCCC=CCCCCCCCCOc1cc(OCCOCCOCCOCCOCCOCCOCCOCCOCCOCCOC)ncn1 [Adjuvant 10] | 68% and 46% | 84% | 95% | 61 | 80 | – | 17% and 14% | 26% | – | – |
| CCCCCCCCC=CCCCCCCCCOc1cc(OCCOCCOCCOCCOCCOCCOCCOCCOCCOCCOCCOCCOCCOCCOCCOCCOCCOCCOCCOCCOC)ncn1 [Adjuvant 11] | 66% | 83% | 92% | 58 | 78 | – | – | – | – | – |
| CCCCCCCCCCCCOc1cc(OCC(C)OCC(C)OCC(C)OC)ncn1 (stereo not shown) [Adjuvant 12] | 82% | 84% | 98% | 69 | 84 | – | – | – | – | – |
